Measured values from PubChem BioAssay (NCI).
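48-hour exposure; five concentrations; linearly interpolated endpoints. TGI is the concentration that stops growth completely.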

Legend:
Assay in all cases: NCI tumour cell line growth inhibition, 48 h
EKVX NSCLC = system: EKVX NSCLC
ACHN renal = system: ACHN renal
TK-10 renal = system: TK-10 renal
SN12C renal = system: SN12C renal
NCI-H23 lung = system: NCI-H23 lung
SF-268 CNS = system: SF-268 CNS
SK-OV-3 ovarian = system: SK-OV-3 ovarian
IGROV1 ovarian = system: IGROV1 ovarian
UACC-62 melanoma = system: UACC-62 melanoma
BT-549 breast = system: BT-549 breast
CCRF-CEM leukemia = system: CCRF-CEM leukemia
SW-620 colon = system: SW-620 colon
MDA-MB-231 breast = system: MDA-MB-231 breast
SF-539 CNS = system: SF-539 CNS
SK-MEL-2 melanoma = system: SK-MEL-2 melanoma
MDA-MB-435 = system: MDA-MB-435
MCF7 breast = system: MCF7 breast
HT29 colon = system: HT29 colon
COLO 205 colon = system: COLO 205 colon
HOP-92 NSCLC = system: HOP-92 NSCLC
DU-145 prostate = system: DU-145 prostate
UACC-257 melanoma = system: UACC-257 melanoma
SK-MEL-28 melanoma = system: SK-MEL-28 melanoma
PC-3 prostate = system: PC-3 prostate
OVCAR-5 ovarian = system: OVCAR-5 ovarian
RXF 393 renal = system: RXF 393 renal
A498 renal = system: A498 renal
OVCAR-8 ovarian = system: OVCAR-8 ovarian
RPMI-8226 leukemia = system: RPMI-8226 leukemia
MOLT-4 leukemia = system: MOLT-4 leukemia
U251 CNS = system: U251 CNS
OVCAR-3 ovarian = system: OVCAR-3 ovarian
A549 NSCLC = system: A549 NSCLC
HOP-62 NSCLC = system: HOP-62 NSCLC
HCT-116 colon = system: HCT-116 colon
MALME-3M melanoma = system: MALME-3M melanoma
HCT-15 colon = system: HCT-15 colon
CAKI-1 renal = system: CAKI-1 renal
NCI-H522 lung = system: NCI-H522 lung
T-47D breast = system: T-47D breast
SNB-19 CNS = system: SNB-19 CNS
HL-60(TB) leukemia = system: HL-60(TB) leukemia
NCI-H460 lung = system: NCI-H460 lung
SK-MEL-5 melanoma = system: SK-MEL-5 melanoma
SF-295 CNS = system: SF-295 CNS
NCI/ADR-RES ovarian = system: NCI/ADR-RES ovarian
OVCAR-4 ovarian = system: OVCAR-4 ovarian
M14 melanoma = system: M14 melanoma
LOX IMVI melanoma = system: LOX IMVI melanoma
KM12 colon = system: KM12 colon
HS 578T breast = system: HS 578T breast
786-0 renal = system: 786-0 renal

SMILES: O=C1NCN(c2ccccc2)C12CCN(CCc1ccc3[nH]c(=S)[nH]c3c1)CC2
- TGI (EKVX NSCLC): > 100 µM
- TGI (ACHN renal): > 100 µM
- TGI (TK-10 renal): 92.9 µM
- TGI (SN12C renal): > 100 µM
- TGI (NCI-H23 lung): > 100 µM
- TGI (SF-268 CNS): > 100 µM
- TGI (SK-OV-3 ovarian): > 100 µM
- TGI (IGROV1 ovarian): > 100 µM
- TGI (UACC-62 melanoma): > 100 µM
- TGI (BT-549 breast): > 100 µM
- TGI (CCRF-CEM leukemia): 22 µM
- TGI (SW-620 colon): 25.8 µM
- TGI (MDA-MB-231 breast): 41.6 µM
- TGI (SF-539 CNS): 58.4 µM
- TGI (SK-MEL-2 melanoma): 41 µM
- TGI (MDA-MB-435): 35.6 µM
- TGI (MCF7 breast): 92.8 µM
- TGI (HT29 colon): > 100 µM
- TGI (COLO 205 colon): 30.7 µM
- TGI (HOP-92 NSCLC): 93.7 µM
- TGI (DU-145 prostate): > 100 µM
- TGI (UACC-257 melanoma): 15.6 µM
- TGI (SK-MEL-28 melanoma): 20.3 µM
- TGI (PC-3 prostate): 75.1 µM
- TGI (OVCAR-5 ovarian): > 100 µM
- TGI (RXF 393 renal): 36.5 µM
- TGI (A498 renal): > 100 µM
- TGI (OVCAR-8 ovarian): > 100 µM
- TGI (RPMI-8226 leukemia): 59.3 µM
- TGI (MOLT-4 leukemia): > 100 µM
- TGI (U251 CNS): 98.4 µM
- TGI (OVCAR-3 ovarian): > 100 µM
- TGI (A549 NSCLC): > 100 µM
- TGI (HOP-62 NSCLC): > 100 µM
- TGI (HCT-116 colon): > 100 µM
- TGI (MALME-3M melanoma): 30.8 µM
- TGI (HCT-15 colon): > 100 µM
- TGI (CAKI-1 renal): > 100 µM
- TGI (NCI-H522 lung): > 100 µM
- TGI (T-47D breast): 56.8 µM
- TGI (SNB-19 CNS): > 100 µM
- TGI (HL-60(TB) leukemia): > 100 µM
- TGI (NCI-H460 lung): > 100 µM
- TGI (SK-MEL-5 melanoma): 31.7 µM
- TGI (SF-295 CNS): > 100 µM
- TGI (NCI/ADR-RES ovarian): > 100 µM
- TGI (OVCAR-4 ovarian): > 100 µM
- TGI (M14 melanoma): 58.3 µM
- TGI (LOX IMVI melanoma): 36.8 µM
- TGI (KM12 colon): > 100 µM
- TGI (HS 578T breast): > 100 µM
- TGI (786-0 renal): > 100 µM
